Measurements taken from patent publication US9802880B2, “Cannabigerol derivatives” (VIVACELL BIOTECHNOLOGY ESPAÑA S.L., priority 2014, dated 2017).

Legend:
[1] = tested on: N2a cells; test: Neuroprotection assay, glutamate-induced excitotoxicity in N2a cells; format: cell-based; details: 1 h pre-incubation, then 5 mM glutamate 24 h, FIG. 5
Method: N2a cells were pre-incubated for 1 h with compounds (II) to (V) and (XII) at the indicated concentrations. Then, cells were treated for 24 h with 5 mM glutamate to induce excitotoxicity, or cytotoxicity in neuronal cells induced by neurotransmitters. Cell viability was quantified by MTT assay. […] Control was set as 100% and data were referred to that value.
Cultured N2A cells were pre-incubated with the compounds II, III, IV, V and XII at the indicated concentrations for 1 h and then treated with 5 mM glutamate to induce excitotoxicity during 24 h (FIG. 5). Cytotoxicity was determined by the MTT method as described in example 3. Results are shown as mean±S.D. from at least three independent experiments, and expressed as percentage of cell viability against the control sample (−). Control was set as 100% and data were referred to that value.

[2] = tested on: EAE mice; test: Experimental autoimmune encephalomyelitis (EAE), clinical score; format: in vivo, C57BL/6 mice
Method: C57BL/6 mice were immunized with MOG35-55 and their clinical score evaluated daily. Mice were treated daily with compound (III) (10 mg/kg) on day 6 post-immunization and the 21 following days. […] Values are expressed as means±SEM for 10 animals per group.
C57BL/6 mice were immunized with MOG35-55 and their clinical score evaluated daily. Mice were treated daily with compound (XII) (5 mg/kg) on day 6 post-immunization and the 21 following days. […] Values are expressed as means±SEM for 6 animals per group.
EAE was induced in female C57BL/6 mice at 6-8 weeks of age by subcutaneous immunization with myelin oligodendrocyte glycoprotein polypeptide (MOG35-55) (300 μg) and 200 μg of Mycobacterium tuberculosis (H37Ra Difco, Franklin Lakes, N.J., USA) in a 1:1 mix with […] Freund's adjuvant (CFA, Sigma-Aldrich, Madrid, Spain). On the same day and 2 days later, mice were injected intraperitoneally (ip) with 200 ng of pertussis toxin (Sigma-Aldrich, Madrid, Spain) in 0.1 ml PBS. […] Treatment started at day 6 post-immunization (p.i.) and consisted in daily injections of compounds III (FIG. 6) and XII (FIG. 8) at the indicated doses or of the vehicle alone (DMSO/PBS) for the following 21 days. The mice were examined daily for clinical signs of EAE and disease scores were measured as follows: 0, no disease; 1, limp tail; 2, limp tail and hind limb weakness; 3, hind limb paralysis; 4, hind limb and front limb paralysis; 5, moribund and death. All animals were sacrificed 28 days (p.i.) for further analysis. Once sacrificed, animals were dissected and their spinal cords were rapidly removed and quickly frozen in RNAlater (Sigma-Aldric, Germany).

[3] = tested on: Ccl2, iNOs, TNFα, IFNg, IL-1b and IL-17; test: EAE, pro-inflammatory gene expression in spinal cord (real-time PCR); format: in vivo, C57BL/6 mice; details: EAE mice, 10 mg/kg, vs EAE+vehicle, FIG. 7
Method: Gene expression of inflammatory markers including CCL2, IFNγ, INOS, TNFα, IL-1β and IL-17 in the spinal cord was down regulated in EAE+compound (III) (10 mg/kg) group compared with EAE+Vehicle mice. Expression levels were calculated using the 2^−ΔΔct method.
EAE was induced in female C57BL/6 mice at 6-8 weeks of age by subcutaneous immunization with myelin oligodendrocyte glycoprotein polypeptide (MOG35-55) (300 μg) and 200 μg of Mycobacterium tuberculosis (H37Ra Difco, Franklin Lakes, N.J., USA) in a 1:1 mix with […] Freund's adjuvant (CFA, Sigma-Aldrich, Madrid, Spain). […] The mice were examined daily for clinical signs of EAE and disease scores were measured as follows: 0, no disease; 1, limp tail; 2, limp tail and hind limb weakness; 3, hind limb paralysis; 4, hind limb and front limb paralysis; 5, moribund and death. […]
Total RNA was isolated from striata (3NP model) or spinal cord (EAE model) using RNeasy Lipid Tissue Mini Kit (Qiagen, GmbH). The total amount of RNA extracted was quantitated by spectrometry at 260 nm and its purity from the ratio between the absorbance values at 260 and 280 nm. […] The iQ™ SYBR Green Supermix (Bio-Rad) was used to quantify mRNA levels for COX-2, TNF-α, IL-6, IL-17, IL-1β, IFN-γ, CCL-2 or iNOS depending on disease's model. […] Expression levels were calculated using the 2^−ΔΔct method.

**Q.** Which “protection from glutamate-induced cytotoxicity (cell viability, MTT)” value [1] does the source give for `CCCCCC1=C(NCC)C(=O)C(C/C=C(\C)CCC=C(C)C)=C(O)C1=O` [Compound III, 6-(3,7-dimethyl-octa-2,6-dienyl)-5-hydroxy-3-pentyl-2-ethylamino-[1,4]benzoquinone] here?
**A.** Its value is “protect neuronal cells from glutamate-induced apoptosis”.

**Q.** What about the “clinical manifestations of EAE” value ([2]; 10 mg/kg daily from day 6 post-immunization for 21 days, FIG. 6) of the same compound?
**A.** The value was “clearly attenuated”.

**Q.** And the “EAE clinical score throughout the experiment (day 6-day 28)” value ([2]; 10 mg/kg daily, score scale 0-5, vehicle-treated mice reached 2.5)?
**A.** The value was < 1.3.

**Q.** And the “day on which the disease peaked” value ([2]; 10 mg/kg daily, vehicle-treated mice peaked by day 16)?
**A.** The value was 17 day post-injection.

**Q.** And the “expression of proinflammatory genes Ccl2, iNOs, TNFα, IFNg, IL-1b and IL-17 in the spinal cord” value [3]?
**A.** The value was “significant decrease”.
